Here are results for 14 compounds from patent publication US8772307B2, “Substituted spiro compounds and their use for producing pain-relief medicaments” (Gruenenthal GmbH, priority 2005, dated 2014).

SMILES strings stand for the structures.

Assay [1] has as its target T1, rat-species vanilloid receptor 1 (VR1/TRPV1) (Rattus norvegicus, UniProt O35433).
T1 construct: endogenous in cells; host or cells: primary cells dissociated from rat dorsal root ganglia (DRG)
The assay is described as follows: Functional testing on vanilloid receptor 1 (VR1/TRPV1): FLIPR Ca2+ inflow assay in rat dorsal root ganglia cells (% activation / % inhibition vs capsaicin). Format: cell-based. As to conditions: for inhibition at 10 µM: inhibition compared to 10 μM CP (capsaicin); for activation at 10 µM: stimulation compared to 10 μM CP (capsaicin). As to the method: Preference may also be given to substituted spiro compounds according to the invention of general formula I which in a FLIPR assay in a concentration of 10 μM display inhibition of the Ca^2+ ion inflow in dorsal root ganglia of rats of at least 30%, preferably of at least 40%, particularly preferably of at least 50%, most particularly preferably of at least 70%, even more preferably of at least 90%, compared to the maximum achievable inhibition of the Ca^2+ ion inflow with capsaicin in a concentration of 10 μM.
In the FLIPR assay, the Ca^2+ inflow is quantified using a Ca^2+-sensitive dye (type Fluo-4, Molecular Probes Europe BV, Leiden, Netherlands) in a fluorescent imaging plate reader (FLIPR, Molecular Devices, Sunnyvale, USA), as described hereinafter.
I. Functional Testing Carried Out on the Vanilloid Receptor 1 (VR1/TRPV1 Receptor)
The agonistic or antagonistic effect of the substances to be tested can be determined on the rat-species vanilloid receptor 1 (VR1/TRPV1) using the following assay. According to this assay, the Ca^2+ inflow is quantified through the receptor channel using a Ca^2+-sensitive dye (type Fluo-4, Molecular Probes Europe BV, Leiden, Netherlands) in a fluorescent imaging plate reader (FLIPR, Molecular Devices, Sunnyvale, USA).
Complete medium: 50 mL HAMS F12 nutrient mixture (Gibco Invitrogen GmbH, Karlsruhe, Germany) with
10% by volume of FCS (foetal calf serum, Gibco Invitrogen GmbH, Karlsruhe, Germany, […]);
2 mM L-glutamine (Sigma, Munich, Germany);
1% by weight of AA solution (antibiotic/antimyotic solution, PAA, Pasching, Austria)
and 25 ng/ml NGF medium (2.5 S, Gibco Invitrogen GmbH, Karlsruhe, Germany)
Cell culture plate: Poly-D-lysine-coated, black 96 well plates having a clear base (96 well black/clear plate, BD Biosciences, Heidelberg, Germany) were additionally coated with laminin (Gibco Invitrogen GmbH, Karlsruhe, Germany), the laminin being diluted with PBS (Ca—Mg-free PBS, Gibco Invitrogen GmbH, Karlsruhe, Germany) to a concentration of 100 μg/mL. Aliquots having a laminin concentration of 100 μg/mL were removed and stored at −20° C. The aliquots were diluted with PBS in a ratio of 1:10 to 10 μg/mL laminin and in each case 50 μL of the solution were pipetted into a recess in the cell culture plate. The cell culture plates were incubated for at least two hours at 37° C., the excess solution was removed by suction-filtration and the recesses were each washed twice with PBS. The coated cell culture plates were stored with excess PBS which was not removed until just before the feeding of the cells.
Preparation of the Cells:
The vertebral column was removed from decapitated rats and placed immediately into cold HBSS buffer (Hank's buffered saline solution, Gibco Invitrogen GmbH, Karlsruhe, Germany), i.e. buffer located in an ice bath, mixed with 1% by volume (percent by volume) of an AA solution (antibiotic/antimyotic solution, PAA, Pasching, Austria). The vertebral column was cut longitudinally and removed together with fasciae from the vertebral canal. Subsequently, the dorsal root ganglia (DRG) were removed and again stored in cold HBSS buffer mixed with 1% by volume of an AA solution. The DRG, from which all blood remnants and spinal nerves had been removed, were transferred in each case to 500 μL of cold type 2 collagenase (PAA, Pasching, Austria) and incubated for 35 minutes at 37° C. After the addition of 2.5% by volume of trypsin (PAA, Pasching, Austria), incubation was continued for 10 minutes at 37° C. After complete incubation, the enzyme solution was carefully pipetted off and 500 μL of complete medium were added to each of the remaining DRG. The DRG were in each case suspended several times, drawn through cannulae No. 1, No. 12 and No. 16 using a syringe and transferred to a 50 mL Falcon tube which was filled up to 15 mL with complete medium. […]

A further assay deals with T2, vanilloid receptor (VR1) (Homo sapiens, UniProt Q8NER1).
T2 construct: expressed in transfected cells; host or cells: CHO K1 cells (ECACC), stably transfected
The assay is described as follows: Functional testing on vanilloid receptor (VR1): FLIPR Ca2+ inflow assay in CHO K1 cells stably transfected with the VR1 gene. As to conditions: for inhibition at 10 µM: CHO-K1, inhibition compared to 10 μM CP (capsaicin); for activation at 10 µM: CHO-K1, stimulation compared to 10 μM CP (capsaicin). The assay is classed as cell-based. The text has this: II. Functional Testing Carried Out on the Vanilloid Receptor (VR1)
The agonistic or antagonistic effect of the substances to be tested can also be determined on the vanilloid receptor (VR1) using the following assay. According to this assay, the Ca^2+ inflow is quantified through the channel using a Ca^2+-sensitive dye (type Fluo-4, Molecular Probes Europe BV, Leiden, Netherlands) in a fluorescent imaging plate reader (FLIPR, Molecular Devices, Sunnyvale, USA).
Chinese hamster ovary cells (CHO K1 cells, European Collection of Cell Cultures (ECACC) United Kingdom) were stably transfected with the VR1 gene. For functional testing, these cells were plated out on poly-D-lysine-coated black 96 well plates having a clear base (BD Biosciences, Heidelberg, Germany) at a density of 25,000 cells/well. The cells were incubated overnight at 37° C. and 5% CO2 in a culture medium (Ham's F12 nutrient mixture, 10% by volume of FCS (foetal calf serum), 18 μg/ml L-proline). The next day the cells were incubated with Fluo-4 (Fluo-4 2 μM, 0.01% by volume of Pluronic F127, Molecular Probes in HBSS (Hank's buffered saline solution), Gibco Invitrogen GmbH, Karlsruhe, Germany) for 30 minutes at 37° C. Subsequently, the plates were washed 3 times with HBSS buffer and after further incubation for 15 minutes at room temperature used for Ca^2+ measurement in a FLIPR assay. The Ca^2+-dependent fluorescence was measured before and after the addition of the substances to be tested (λex wavelength=488 nm, λem=540 nm). Quantification was carried out by measuring the highest fluorescence intensity (FC, Fluorescence Counts) over time.
The FLIPR protocol consists of 2 substance additions. First the compounds to be tested (10 μM) were pipetted onto the cells and the Ca^2+ inflow was compared with the control (capsaicin 10 μM) (% activation based on the Ca^2+ signal after the addition of 10 μM capsaicin). After 5 minutes' incubation, 100 nM of capsaicin were administered and the Ca^2+ inflow was also determined.
Desensitising agonists and antagonists led to suppression of the Ca^2+ inflow. The % inhibition was calculated compared to the maximum achievable inhibition with 10 μM of capsaicin.

T2 sequence (Q8NER1 whole entry): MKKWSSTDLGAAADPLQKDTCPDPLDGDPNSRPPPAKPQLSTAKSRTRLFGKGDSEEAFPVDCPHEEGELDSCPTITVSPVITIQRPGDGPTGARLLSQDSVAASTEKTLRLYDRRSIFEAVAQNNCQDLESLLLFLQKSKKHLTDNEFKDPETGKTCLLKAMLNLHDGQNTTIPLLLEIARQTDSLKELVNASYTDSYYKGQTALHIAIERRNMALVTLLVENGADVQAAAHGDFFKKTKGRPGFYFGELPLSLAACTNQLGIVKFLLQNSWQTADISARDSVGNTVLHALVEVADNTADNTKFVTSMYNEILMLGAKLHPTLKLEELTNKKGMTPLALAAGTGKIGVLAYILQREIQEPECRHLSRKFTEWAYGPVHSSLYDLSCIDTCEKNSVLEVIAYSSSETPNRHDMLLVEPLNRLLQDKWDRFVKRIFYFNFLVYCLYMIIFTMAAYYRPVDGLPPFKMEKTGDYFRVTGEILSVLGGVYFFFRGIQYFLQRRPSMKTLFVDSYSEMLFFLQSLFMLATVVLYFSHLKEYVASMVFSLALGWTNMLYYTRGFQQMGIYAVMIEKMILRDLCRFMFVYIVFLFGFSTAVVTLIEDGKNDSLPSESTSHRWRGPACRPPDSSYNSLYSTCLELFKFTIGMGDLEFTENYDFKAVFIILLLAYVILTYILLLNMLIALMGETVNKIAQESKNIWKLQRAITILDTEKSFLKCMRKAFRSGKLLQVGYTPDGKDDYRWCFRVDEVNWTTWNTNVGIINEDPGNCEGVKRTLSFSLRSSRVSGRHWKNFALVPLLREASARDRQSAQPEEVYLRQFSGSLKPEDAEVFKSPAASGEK
T1 sequence (O35433 whole entry): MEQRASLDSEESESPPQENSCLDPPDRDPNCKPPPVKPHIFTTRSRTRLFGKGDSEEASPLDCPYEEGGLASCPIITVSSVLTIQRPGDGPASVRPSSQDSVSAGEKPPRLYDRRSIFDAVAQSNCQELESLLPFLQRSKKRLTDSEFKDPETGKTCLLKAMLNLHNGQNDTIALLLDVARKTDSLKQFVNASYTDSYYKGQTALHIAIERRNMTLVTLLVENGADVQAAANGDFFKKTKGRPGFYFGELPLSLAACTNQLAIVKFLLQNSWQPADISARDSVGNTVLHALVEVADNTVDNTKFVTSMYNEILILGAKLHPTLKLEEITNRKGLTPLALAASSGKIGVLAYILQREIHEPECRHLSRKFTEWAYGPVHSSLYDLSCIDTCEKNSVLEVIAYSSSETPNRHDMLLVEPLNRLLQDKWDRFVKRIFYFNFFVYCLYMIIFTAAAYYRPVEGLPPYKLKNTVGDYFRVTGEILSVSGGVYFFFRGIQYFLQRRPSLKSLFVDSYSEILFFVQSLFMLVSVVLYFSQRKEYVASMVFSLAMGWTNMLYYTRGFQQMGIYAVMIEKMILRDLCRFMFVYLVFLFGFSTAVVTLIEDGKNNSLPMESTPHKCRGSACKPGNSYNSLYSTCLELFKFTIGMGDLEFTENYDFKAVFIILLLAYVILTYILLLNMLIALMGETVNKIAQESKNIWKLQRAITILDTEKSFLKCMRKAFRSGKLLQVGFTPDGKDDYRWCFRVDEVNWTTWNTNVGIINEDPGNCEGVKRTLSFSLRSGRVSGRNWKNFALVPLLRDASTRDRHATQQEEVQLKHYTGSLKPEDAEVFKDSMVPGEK

By inhibition is commonly meant the relative decrease from the control value, in per cent. Turning to `CCc1ccccc1NC(=O)N1CCC2(CC1)CC(c1cccc(OC)c1)=NO2` [Compound 156, 3-(3-methoxyphenyl)-1-oxa-2,8-diazaspiro[4.5]dec-2-ene-8-carboxylic acid-(2-ethylphenyl)amide], in assay [1], the inhibition at 10 µM was 48.2% and the activation at 10 µM turned out to be 0.2%. Also, on vanilloid receptor (VR1), the inhibition at 10 µM is -7.89% and the activation at 10 µM was 0.69%.

Consider `CCc1ccc(NC(=O)N2CCC3(CC2)CC(c2ccccc2)=NO3)cc1` [Compound 163, 3-phenyl-1-oxa-2,8-diazaspiro[4.5]dec-2-ene-8-carboxylic acid-(4-ethylphenyl)amide], for which, in assay [1], the inhibition at 10 µM amounted to 84.3% and the activation at 10 µM is -0.43%. Further, at vanilloid receptor (VR1), the inhibition at 10 µM was -3.15% and the activation at 10 µM was found to be 0.12%.

Turning to `CCc1ccc(NC(=O)N2CCC3(CC2)CC(c2ccc(Cl)cc2)=NO3)cc1` [Compound 164, 3-(4-chlorophenyl)-1-oxa-2,8-diazaspiro[4.5]dec-2-ene-8-carboxylic acid-(4-ethylphenyl)amide], the results for the inhibition at 10 µM (in assay [1]; at vanilloid receptor (VR1)) were 72.9% and -2.13%, respectively. For the same compound, the results for the activation at 10 µM (in assay [1]; on vanilloid receptor (VR1)) were -0.43% and -0.04%, respectively.

Regarding `CCc1ccc(NC(=O)N2CCC3(CC2)CC(c2ccc(C(C)(C)C)cc2)=NO3)cc1` [Compound 165, 3-(4-tert-butylphenyl)-1-oxa-2,8-diazaspiro[4.5]dec-2-ene-8-carboxylic acid-(4-ethylphenyl)amide], in assay [1], the inhibition at 10 µM is 56.2% and the activation at 10 µM was -0.43%. At vanilloid receptor (VR1), the inhibition at 10 µM was found to be 1.69% and the activation at 10 µM is 1.92%.

For `CCc1ccc(NC(=O)N2CCC3(CC2)CC(c2ccc(C(F)(F)F)cc2)=NO3)cc1` [Compound 167, 3-(4-trifluoromethylphenyl)-1-oxa-2,8-diazaspiro[4.5]dec-2-ene-8-carboxylic acid-(4-ethylphenyl)amide], in assay [1], the inhibition at 10 µM turned out to be 47.4% and the activation at 10 µM is -0.43%. For the same compound, on vanilloid receptor (VR1), the inhibition at 10 µM stood at 17.5% and the activation at 10 µM amounted to 0.06%.

Consider `COc1cccc(C2=NOC3(CCN(C(=O)Nc4cccc(F)c4)CC3)C2)c1` [Compound 174, 3-(3-methoxyphenyl)-1-oxa-2,8-diazaspiro[4.5]dec-2-ene-8-carboxylic acid-(3-fluorophenyl)amide], for which, in assay [1], the inhibition at 10 µM was found to be 47.8% and the activation at 10 µM is -0.28%. At vanilloid receptor (VR1), the inhibition at 10 µM was -25% and the activation at 10 µM worked out at 5.9%.

Consider `COc1cccc(C2=NOC3(CCN(C(=O)Nc4cccc(Br)c4)CC3)C2)c1` [Compound 192, 3-(3-methoxyphenyl)-1-oxa-2,8-diazaspiro[4.5]dec-2-ene-8-carboxylic acid-(3-bromophenyl)amide], for which the inhibition at 10 µM in assay [1] is 52.1%; on vanilloid receptor (VR1) it was -6.74%. The figures for the activation at 10 µM (in assay [1]; on vanilloid receptor (VR1)) were -0.07% and -0.04%, respectively.

For `O=C(Nc1cccc(Br)c1)N1CCC2(CC1)CC(c1ccccc1)=NO2` [Compound 193, 3-phenyl-1-oxa-2,8-diazaspiro[4.5]dec-2-ene-8-carboxylic acid-(3-bromophenyl)amide], in assay [1], the inhibition at 10 µM turned out to be 43.6% and the activation at 10 µM was -0.17%. At vanilloid receptor (VR1), the inhibition at 10 µM is -2.64% and the activation at 10 µM stood at 0.11%.

Consider `O=C(Nc1ccc(Br)cc1)N1CCC2(CC1)CC(c1ccccc1)=NO2` [Compound 197, 3-phenyl-1-oxa-2,8-diazaspiro[4.5]dec-2-ene-8-carboxylic acid-(4-bromophenyl)amide], for which, in assay [1], the inhibition at 10 µM amounted to 59.9% and the activation at 10 µM was -0.35%. For the same compound, on vanilloid receptor (VR1), the inhibition at 10 µM was -17.2% and the activation at 10 µM was 0.06%.

With `COc1ccccc1NC(=O)N1CCC2(CC1)CC(c1ccc(C(C)(C)C)cc1)=NO2` [Compound 201, 3-(4-tert-butylphenyl)-1-oxa-2,8-diazaspiro[4.5]dec-2-ene-8-carboxylic acid-(2-methoxyphenyl)amide], in assay [1], the inhibition at 10 µM turned out to be 54.2% and the activation at 10 µM was -0.43%. Besides, at vanilloid receptor (VR1), the inhibition at 10 µM is -0.7% and the activation at 10 µM is 8.56%.

Take `COc1cccc(NC(=O)N2CCC3(CC2)CC(c2ccccc2)=NO3)c1` [Compound 205, 3-phenyl-1-oxa-2,8-diazaspiro[4.5]dec-2-ene-8-carboxylic acid-(3-methoxyphenyl)amide]: in assay [1], the inhibition at 10 µM was determined as 39.9% and the activation at 10 µM came out at 0.15%. At vanilloid receptor (VR1), the inhibition at 10 µM is -23.9% and the activation at 10 µM turned out to be 0.33%.

`COc1cccc(C2=NOC3(CCN(C(=O)Nc4ccc(C(F)(F)F)cc4)CC3)C2)c1` [Compound 210, 3-(3-methoxyphenyl)-1-oxa-2,8-diazaspiro[4.5]dec-2-ene-8-carboxylic acid-(4-trifluoromethylphenyl)amide]: in assay [1], the inhibition at 10 µM was found to be 98% and the activation at 10 µM came out at 0.22%. For the same compound, at vanilloid receptor (VR1), the inhibition at 10 µM came to 7.12% and the activation at 10 µM is -0.21%.

On to `O=C(Nc1ccc(C(F)(F)F)cc1)N1CCC2(CC1)CC(c1ccccc1)=NO2` [Compound 211, 3-phenyl-1-oxa-2,8-diazaspiro[4.5]dec-2-ene-8-carboxylic acid-(4-trifluoromethylphenyl)amide], for which, in assay [1], the inhibition at 10 µM stood at 97.5% and the activation at 10 µM stood at 0.33%. Moreover, at vanilloid receptor (VR1), the inhibition at 10 µM was 9.23% and the activation at 10 µM is -0.18%.

Turning to `O=C(Nc1ccc(C(F)(F)F)cc1)N1CCC2(CC1)CC(c1ccc(Cl)cc1)=NO2` [Compound 212, 3-(4-chlorophenyl)-1-oxa-2,8-diazaspiro[4.5]dec-2-ene-8-carboxylic acid-(4-trifluoromethylphenyl)amide], the inhibition at 10 µM in assay [1] was 61.9%; against vanilloid receptor (VR1), -16.1%. Further, the activation at 10 µM is -0.43% in assay [1] and -0.21% at vanilloid receptor (VR1).
